We go through 18 compounds from ChEMBL document CHEMBL2176947, “Discovery of the First Potent Inhibitors of Mutant IDH1 That Lower Tumor 2-HG in Vivo” (ACS Med Chem Lett, 2012).

Chain of Isocitrate dehydrogenase [NADP] cytoplasmic (O75874 2-414 R132H limits assumed): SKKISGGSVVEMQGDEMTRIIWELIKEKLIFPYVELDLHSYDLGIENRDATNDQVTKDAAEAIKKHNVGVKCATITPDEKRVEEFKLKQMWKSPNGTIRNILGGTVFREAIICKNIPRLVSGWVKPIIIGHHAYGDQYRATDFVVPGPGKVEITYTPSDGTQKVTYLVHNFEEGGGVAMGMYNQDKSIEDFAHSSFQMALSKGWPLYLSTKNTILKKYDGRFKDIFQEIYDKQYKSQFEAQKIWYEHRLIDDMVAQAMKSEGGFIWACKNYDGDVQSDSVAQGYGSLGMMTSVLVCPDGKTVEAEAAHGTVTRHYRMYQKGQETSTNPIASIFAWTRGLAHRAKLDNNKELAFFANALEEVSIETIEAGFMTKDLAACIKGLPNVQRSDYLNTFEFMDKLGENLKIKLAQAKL

This experiment has as its target Isocitrate dehydrogenase [NADP] cytoplasmic (Homo sapiens, UniProt O75874, R132H). Put plainly: Inhibition of IDH1 R132H mutant using alpha-ketoglutarate as substrate after 60 mins by resazurin-based fluorimetric analysis.
`Cc1ccccc1C(C(=O)NC(C)(C)C)N(C(=O)Cc1cccs1)c1cccc(F)c1` (racemic): half-maximal inhibition (IC50) required 860 nM. Under `Cc1ccccc1C(C(=O)NC1CCNCC1)N(C(=O)Cc1cccs1)c1cccc(F)c1` (racemic) stands 53100 nM; under `Cc1ccccc1C(C(=O)NC1CCCCC1)N(CCc1cccs1)c1cccc(F)c1` (racemic), > 100000 nM. As for `Cc1ccccc1C(C(=O)NC1CCCCC1)N(C(=O)CN)c1cccc(F)c1` (racemic), the figure is 7800 nM; as for `Cc1ccccc1C(CNC1CCCCC1)N(C(=O)Cc1cccs1)c1cccc(F)c1` (racemic), > 100000 nM. Under `CN(C(=O)C(c1ccccc1)N(C(=O)Cc1cccs1)c1cccc(F)c1)C1CCCCC1` (racemic) stands 3600 nM; under `Cc1ccccc1C(C(=O)NC1CCC1)N(C(=O)Cc1cccs1)c1cccc(F)c1` (racemic), 290 nM. As for `Cc1ccccc1C(C(=O)NC1CCCCC1)N(C(=O)CNc1ccccc1)c1cccc(F)c1` (racemic), half-maximal inhibition (IC50) was put at 60 nM. Under `Cc1ccccc1C(C(=O)NCc1ccccc1)N(C(=O)Cc1cccs1)c1cccc(F)c1` (racemic) stands 1800 nM. `Cc1ccccc1C(C(=O)NC1CCCCC1)N(C(=O)CN(C)c1ccccc1)c1cccc(F)c1` (racemic) yielded a concentration for half-maximal inhibition (IC50) of 50 nM. Compound `Cc1ccccc1NC(=O)C(c1ccccc1C)N(C(=O)Cc1cccs1)c1cccc(F)c1` (racemic) showed an IC50 of 570 nM. Take `Cc1ccccc1C(C(=O)NC1CCCCC1)N(C(=O)CNC1CCCC1)c1cccc(F)c1` (racemic): 450 nM corresponded to half-maximal inhibition (IC50). Take `Cc1ccccc1C(C(=O)NC1CCCCC1)N(C(=O)CNC1CCCCC1)c1cccc(F)c1` (racemic): half-maximal inhibition (IC50) required 1270 nM. As for `Cc1ccccc1C(C(=O)NC1CCCCC1)N(C(=O)Cn1cccn1)c1cccc(F)c1` (racemic), half-maximal inhibition (IC50) required 420 nM. As for `O=C(NC1CCCCC1)C(c1ccccc1)N(C(=O)Cc1cccs1)c1cccc(F)c1` (stereo not drawn), the figure is 80 nM.

The compound `Cc1ccccc1C(C(=O)NC1CCOCC1)N(C(=O)Cc1cccs1)c1cccc(F)c1` (racemic) had an IC50 of 640 nM.

Regarding `O=C(NC1CCCCC1)[C@H](c1ccccc1)N(C(=O)Cc1cccs1)c1cccc(F)c1`, the IC50 turned out to be 60 nM. Under `O=C(NC1CCCCC1)[C@@H](c1ccccc1)N(C(=O)Cc1cccs1)c1cccc(F)c1` stands > 11000 nM.
